Experiments:
[1] = test system: tumor-specific CD8 and CD4 T cell responses (PBMCs); experiment: Ex vivo stimulation assay: IFN-γ ELISPOT of PBMCs stimulated with OVA and p15 peptides; type: in vivo, C57BL/6J mice; details: Example 1, four days after third s.c. injection, cGAMP-VLP 50 ng cGAMP s.c., Imatinib 10 mg/kg i.p.
Source text: […] Mice were bled in the retro-orbital sinus and PBMCs were isolated from whole blood by lysing the red blood cells. […] Spots were developed using a mouse IFN-γ ELISPOT antibody (Diaclone) according to the manufacturer's instructions, and the number of spots enumerated using an ImmunoSpot analyzer.

MCA-OVA tumor [2] = experiment: Tumor growth monitoring in MCA-OVA tumor model; type: in vivo, C57BL/6J mice; details: Example 1; cGAMP-VLP 50 ng cGAMP s.c. three times, Imatinib 10 mg/kg i.p. days 6-10
MCA-OVA tumor [3] = experiment: Survival of treated MCA-OVA tumor-bearing mice; type: in vivo, C57BL/6J mice; details: Example 1; log-rank test; cGAMP-VLP 50 ng cGAMP s.c., Imatinib 10 mg/kg i.p.
STING [4] = target: STING (Homo sapiens, UniProt Q86WV6); details: compared with cGAMP, reporter assays; cited from earlier work
Sequence of STING (Homo sapiens, UniProt Q86WV6) (Q86WV6 whole entry): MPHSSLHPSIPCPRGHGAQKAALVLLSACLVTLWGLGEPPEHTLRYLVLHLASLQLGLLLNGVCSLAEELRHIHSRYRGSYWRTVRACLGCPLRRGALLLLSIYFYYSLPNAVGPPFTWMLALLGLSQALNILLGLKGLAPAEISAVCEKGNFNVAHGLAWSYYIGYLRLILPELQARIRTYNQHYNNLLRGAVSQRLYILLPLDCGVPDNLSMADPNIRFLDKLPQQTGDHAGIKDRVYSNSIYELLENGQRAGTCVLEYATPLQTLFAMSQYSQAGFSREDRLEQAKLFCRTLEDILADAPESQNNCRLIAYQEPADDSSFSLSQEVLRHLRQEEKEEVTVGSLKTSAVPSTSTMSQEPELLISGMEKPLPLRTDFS

STING [5] = details: comparative statement (hSTING vs mSTING; or vs cGAMP); cited from earlier work

Compound	Tumor-specific T cell responses in peripheral blood (IFN-γ ELISPOT) [1]	Tumor growth (MCA-OVA tumor [2])	Survival (death event: tumor size >2 cm^3) (MCA-OVA tumor [3])	Potency for inducing type I IFN (STING [4])	Affinity/binding to STING (STING [5])
Cc1ccc(NC(=O)c2ccc(CN3CCN(C)CC3)cc2)cc1Nc1nccc(-c2cccnc2)n1 [Imatinib]	did not induce tumor-specific T cell responses compared to the PBS group	no effect on the tumor growth compared to control group	did not show survival benefit compared to PBS treatment		
COc1c(O)cc2oc3cc(O)c(CC=C(C)C)c(O)c3c(=O)c2c1CC=C(C)C [α-mangostin]				weaker potency for inducing type I IFN compared with cGAMP	higher affinity to human (h)STING than to mSTING
Diaminobenzimidazole					enhanced binding to STING and cellular function as compared to cGAMP

— patent US20240423927A1, “COMPOSITIONS AND METHODS FOR USE IN IMMUNOTHERAPY” (INSTITUT CURIE, priority 2021, published 2024)
